# Experimental data as given in patent US4614714A (priority 1982, dated 1986).
# Entries after “also recorded” stand apart in the source; their conditions may differ. Structures can show the parent of a compound that is named as a salt. Where two headings read alike, the source gives them in different places.
# Assays:
# [1] = molecular target: T1, novel L-glutamic acid oxidase (Streptomyces sp, UniProt Q8L3C7); test: Effects of various additives on the activity of the novel enzyme; format: biochemical, Streptomyces sp. X-119-6; set-up: from the cultured product of an actinomycete newly isolated from a soil sample; made in house; host or cells: cultured product of the natural (non-recombinant) actinomycete strain, purified
# T1 sequence (Q8L3C7 15-390 limits assumed): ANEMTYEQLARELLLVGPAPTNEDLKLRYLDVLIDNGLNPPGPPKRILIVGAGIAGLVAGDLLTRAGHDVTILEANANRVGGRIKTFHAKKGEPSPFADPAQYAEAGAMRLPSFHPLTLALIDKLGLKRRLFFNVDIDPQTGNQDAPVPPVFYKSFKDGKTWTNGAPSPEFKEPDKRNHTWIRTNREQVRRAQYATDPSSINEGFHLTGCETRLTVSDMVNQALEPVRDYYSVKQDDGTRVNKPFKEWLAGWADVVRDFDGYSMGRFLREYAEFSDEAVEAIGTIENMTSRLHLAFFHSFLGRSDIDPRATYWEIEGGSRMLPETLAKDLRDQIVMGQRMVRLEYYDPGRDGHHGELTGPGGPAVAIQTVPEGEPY
# T1 sequence (Q8L3C7 391-520 limits assumed): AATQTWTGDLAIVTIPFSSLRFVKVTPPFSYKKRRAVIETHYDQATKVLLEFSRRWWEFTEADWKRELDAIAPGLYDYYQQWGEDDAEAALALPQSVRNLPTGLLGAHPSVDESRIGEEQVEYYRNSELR
# T1 sequence (Q8L3C7 521-701 limits assumed): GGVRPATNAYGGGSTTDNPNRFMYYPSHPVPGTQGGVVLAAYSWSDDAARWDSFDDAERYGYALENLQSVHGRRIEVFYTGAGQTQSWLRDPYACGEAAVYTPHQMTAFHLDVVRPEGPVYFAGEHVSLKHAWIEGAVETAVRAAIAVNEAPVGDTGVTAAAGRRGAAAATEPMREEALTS
# [2] = system: lyophilized cell of E. coli, which exhibits L-glutamic acid decarboxylase activity; conditions: microorganism electrode, cited from earlier work; for Relative sensitivity ratio: glutamic acid = 100
# [3] = system: glutamic acid oxidase (known enzyme); conditions: cited from earlier work
# [4] = molecular target: T2, immobilized L-glutamic acid oxidase (Streptomyces sp, UniProt Q8L3C7); test: Responses of the L-glutamic acid sensor of Example C1 to various amino acids; format: biochemical, Streptomyces sp. X-119-6
# T2 construct: from the cultured product of an actinomycete newly isolated from a soil sample; made in house; host or cells: cultured product of the natural (non-recombinant) actinomycete strain; immobilized on a Cellophane membrane with glutaraldehyde
# T2 sequence (Q8L3C7 15-390 limits assumed): T1 sequence (Q8L3C7 15-390 limits assumed)
# T2 sequence (Q8L3C7 391-520 limits assumed): T1 sequence (Q8L3C7 391-520 limits assumed)
# T2 sequence (Q8L3C7 521-701 limits assumed): T1 sequence (Q8L3C7 521-701 limits assumed)
# Description: In FIG. 18, the sample solution 2 injected through inlet 1 is transferred by a peristaltic pump 4 together with oxygen saturated buffer 3 into a cell 5.
# The results obtained by the measurement are shown as relative responses. The reaction was carried out in 0.1M of acetic acid-sodium acetate buffer at pH 5.5 and 30° C.
# [5] = molecular target: T1, novel L-glutamic acid oxidase; test: Substrate specificity of the novel enzyme, oxygen electrode method
# Description: The concentration of each substrate was 10 mM, and the reactions were carried out at pH 7.4 (0.1 M potassium phosphate buffer) and pH 6.0 (0.1 M acetate buffer).
# That is, 1 ml of 0.1 M potassium phosphate buffer (pH 7.4) containing 10 mM sodium L-glutamate was charged into an oxygen electrode cell and 10 μl of an enzyme solution was added thereto to measure the oxygen consumption rate. One unit of enzyme was determined as the amount of enzyme which consumes 1μ mol of oxygen per minute at 30° C. in the absence of catalase (unit: hereinafter abbreviated as "U").
# [6] = system: glutamic acid oxidase (known enzyme); conditions: cited from earlier work; for activity of the known enzyme: relative to L-glutamic acid; for relative activity of the known enzyme: velocity of enzymatic reaction for L-glutamic acid given as 100
# [7] = additive 1 mM, pH 7.4, no addition = 100
# [8] = pH 5.5; read-out: Relative response (%)
# [9] = pH 6, read-out: Relative Activity (%) pH 6.0, substrate 10 mM, pH 6.0 (0.1 M acetate buffer), relative to L-glutamic acid
# [10] = pH 7.4, read-out: Relative Activity (%) pH 7.4, substrate 10 mM, pH 7.4 (0.1 M potassium phosphate buffer), relative to L-glutamic acid
# [11] = additive 1 mM, pH 7.4, no addition = 100, read-out: Relative activity
# [12] = pH 5.5, read-out: Relative response (%)
# [13] = pH 6, read-out: Relative Activity (%) pH 6.0
# [14] = pH 7.4, read-out: Relative Activity (%) pH 7.4
compound,measurement,setting,value
O=S(=O)([O-])[O-].O=S(=O)([O-])[O-].O=S(=O)([O-])[O-].[Al+3].[Al+3] [Al2 (SO4)3],Relative activity,[1]; [7],93.8
C[C@H](N)C(=O)O [Alanine],Relative sensitivity ratio,[2],0.5
N=C(N)NCCC[C@H](N)C(=O)O [Arginine],Relative sensitivity ratio,[2],0.6
N[C@@H](CC(=O)O)C(=O)O [Aspartic acid],Relative sensitivity ratio,[2],1.0
[Ba+2].[Cl-].[Cl-] [BaCl2],Relative activity,[1]; [7],95.1
[Ca+2].[Cl-].[Cl-] [CaCl2],Relative activity,[1]; [7],100.0
"[Cl][Cu][Cl] [CuCl2, cupric chloride]",inhibition of the known enzyme (in words),[3],completely inhibited
same,inhibition of the activity of the novel enzyme (in words),"[1]; additive 1 mM, pH 7.4",not inhibited at all
N[C@@H](CSSC[C@H](N)C(=O)O)C(=O)O [Cystine],Relative sensitivity ratio,[2],0.4
N[C@H](CCC(=O)O)C(=O)O [D-Glutamic acid],activity at 2000 µM,[4]; [8],< 0.1%
same,activity at 10000 µM,[5]; [9],< 0.1%
same,activity of the novel enzyme (in words),[5]; pH 7.4,substantially no activity
same,activity at 10000 µM,[5]; [10],< 0.1%
"CCN(CC)C(=S)S [DDTC, diethyldithiocarbamate]",activity at 1000 µM,[1]; [11],101%
"O=C(O)CN(CCN(CC(=O)O)CC(=O)O)CC(=O)O [EDTA, ethylenediaminetetraacetic acid]",activity at 1000 µM,"[1]; pH 7.4, read-out: Relative activity",96.5%
N[C@@H](CCC(=O)O)C(=O)O [Glutamic acid],Relative sensitivity ratio,[2],100
NC(=O)CC[C@H](N)C(=O)O [Glutamine],"Relative sensitivity ratio, acetone treated cell",[2]; acetone treated cell was employed,11
same,Relative sensitivity ratio,[2],108
NCC(=O)O [Glycine],Relative sensitivity ratio,[2],0.4
same,activity at 2000 µM,[4]; [12],< 0.1%
same,activity at 10000 µM,[5]; [9],< 0.1%
same,activity at 10000 µM,[5]; [10],< 0.1%
[Cl-].[K+] [KCl],Relative activity,[1]; [7],111.1
[I-].[K+] [KI],Relative activity,[1]; [7],100.7
C[C@H](N)C(=O)O [L-Alanine],activity at 2000 µM,[4]; [12],< 0.1%
same,activity at 10000 µM,[5]; [9],< 0.1%
same,activity at 10000 µM,[5]; [10],< 0.1%
N=C(N)NCCC[C@H](N)C(=O)O [L-Arginine],activity at 2000 µM,[4]; [12],< 0.1%
same,activity at 10000 µM,[5]; [9],< 0.1%
same,activity at 10000 µM,[5]; [10],< 0.1%
NC(=O)C[C@H](N)C(=O)O [L-Asparagine],activity at 2000 µM,[4]; [8],< 1%
same,activity at 10000 µM,[5]; [13],< 0.1%
same,activity at 10000 µM,[5]; [14],< 0.1%
N[C@@H](CC(=O)O)C(=O)O [L-Aspartic acid],activity at 2000 µM,[4]; [12],< 1%
same,activity of the novel enzyme (in words),[5]; pH 6.0,substantially no activity; also recorded: substantially no action
same,activity at 10000 µM,[5]; [9],< 0.1%
same,activity at 10000 µM,[5]; [10],0.6%
same,Relative Activity (%) pH 6.0,"[5]; substrate 10 mM, pH 6.0 (0.1 M acetate buffer), relative to L-glutamic acid",≤ 0.1%
same,activity of the known enzyme,[6],≤ 0.1%
N[C@@H](CS)C(=O)O [L-Cysteine],activity at 2000 µM,[4]; [12],< 0.1%
same,activity at 10000 µM,[5]; [9],< 0.1%
same,activity at 10000 µM,[5]; [10],< 0.1%
N[C@@H](CCC(=O)O)C(=O)O [L-Glutamic acid],activity at 2000 µM,[4]; [8],100%
same,activity at 10000 µM,[5]; [13],100%
same,activity at 10000 µM,[5]; [14],100%
NC(=O)CC[C@H](N)C(=O)O [L-Glutamine],activity at 2000 µM,[4]; [12],< 2%
same,activity at 10000 µM,[5]; [9],< 0.1%
same,activity of the novel enzyme (in words),[5]; pH 7.4,substantially no activity
same,activity at 10000 µM,[5]; [10],< 0.1%
same,activity of the known enzyme,[6],8.4%
same,relative activity of the known enzyme,[6],8.4
N[C@@H](Cc1c[nH]cn1)C(=O)O [L-Histidine],activity at 2000 µM,[4]; [8],< 0.1%
same,activity at 10000 µM,[5]; [13],< 0.1%
same,activity of the novel enzyme (in words),[5]; pH 7.4,substantially no activity
same,activity at 10000 µM,[5]; [14],< 0.1%
same,activity of the known enzyme,[6],6.8%
same,relative activity of the known enzyme,[6],6.8
CC[C@H](C)[C@H](N)C(=O)O [L-Isoleucine],activity at 2000 µM,[4]; [12],< 0.1%
same,activity at 10000 µM,[5]; [9],< 0.1%
same,activity at 10000 µM,[5]; [10],< 0.1%
CC(C)C[C@H](N)C(=O)O [L-Leucine],activity at 2000 µM,[4]; [12],< 0.1%
same,activity at 10000 µM,[5]; [9],< 0.1%
same,activity at 10000 µM,[5]; [10],< 0.1%
NCCCC[C@H](N)C(=O)O [L-Lysine],activity at 2000 µM,[4]; [12],< 0.1%
same,activity at 10000 µM,[5]; [9],< 0.1%
same,activity at 10000 µM,[5]; [10],< 0.1%
CSCC[C@H](N)C(=O)O [L-Methionine],activity at 2000 µM,[4]; [12],< 0.1%
same,activity at 10000 µM,[5]; [9],< 0.1%
same,activity at 10000 µM,[5]; [10],< 0.1%
NCCC[C@H](N)C(=O)O [L-Ornithine],activity at 2000 µM,[4]; [12],< 0.1%
same,activity at 10000 µM,[5]; [9],< 0.1%
same,activity at 10000 µM,[5]; [10],< 0.1%
N[C@@H](Cc1ccccc1)C(=O)O [L-Phenylalanine],activity at 2000 µM,[4]; [8],< 0.1%
same,activity at 10000 µM,[5]; [13],< 0.1%
same,activity at 10000 µM,[5]; [14],< 0.1%
O=C(O)[C@@H]1CCCN1 [L-Proline],activity at 2000 µM,[4]; [12],< 0.1%
same,activity at 10000 µM,[5]; [9],< 0.1%
same,activity at 10000 µM,[5]; [10],< 0.1%
N[C@@H](CO)C(=O)O [L-Serine],activity at 2000 µM,[4]; [12],< 0.1%
same,activity at 10000 µM,[5]; [9],< 0.1%
C[C@@H](O)[C@H](N)C(=O)O [L-Threonine],activity at 2000 µM,[4]; [8],< 0.1%
same,activity at 10000 µM,[5]; [13],< 0.1%
same,activity at 10000 µM,[5]; [14],< 0.1%
N[C@@H](Cc1c[nH]c2ccccc12)C(=O)O [L-Tryptophan],activity at 2000 µM,[4]; [12],< 0.1%
N[C@@H](Cc1ccc(O)cc1)C(=O)O [L-Tyrosine],activity at 10000 µM,[5]; [9],< 0.1%
same,activity at 10000 µM,[5]; [10],< 0.1%
CC(C)[C@H](N)C(=O)O [L-Valine],activity at 2000 µM,[4]; [12],< 0.1%
same,activity at 10000 µM,[5]; [9],< 0.1%
same,activity at 10000 µM,[5]; [10],< 0.1%
O=S(=O)([O-])[O-].[Li+].[Li+] [Li2 SO4],Relative activity,[1]; [7],93.8
O=S(=O)([O-])[O-].[Mn+2] [MnSO4],Relative activity,[1]; [7],102.1
"CCN1C(=O)C=CC1=O [NEM, N--ethylmaleimide]",activity at 1000 µM,[1]; [11],94.4%
[Cl-].[Na+] [NaCl],Relative activity,"[1]; l-glutamic acid oxidase, pH 7.4, 1000 µM",95.8
[F-].[Na+] [NaF],Relative activity,[1]; [7],107.6
[N-]=[N+]=[N-].[Na+] [NaN3],Relative activity,[1]; [7],100.6
[Cl][Ni][Cl] [NiCl2],Relative activity,[1]; [7],96.5
"O=C(O)c1cc[c]([Hg][Cl])cc1 [PCMB, pchloromercuribenzoate]",inhibition of the activity of the novel enzyme,"[1]; additive 1 mM, pH 7.4",about 45%
same,Relative activity,[1]; [7],55.6
[Cl-].[Cl-].[Sr+2] [StCl2],Relative activity,[1]; [7],97.2
"O=S(=O)(O)c1cc(O)c(O)c(S(=O)(=O)O)c1 [Tiron, 4,5dihydroxy-1,3-benzenedisulfonic acid disodium salt]",activity at 1000 µM,[1]; [11],101%
N[C@@H](Cc1c[nH]c2ccccc12)C(=O)O [Tryptophan],Relative sensitivity ratio,[2],0.4
O=S(=O)([O-])[O-].[Zn+2] [ZnSO4],Relative activity,[1]; [7],90.3
[Cu+] [copper ions],inhibition of the known enzyme (in words),[3],Substantially completely inhibited; also recorded: markedly inhibited
c1cnc2c(c1)ccc1cccnc12 [o-phenanthroline],activity at 1000 µM,[1]; [11],97.8%
"c1ccc(-c2ccccn2)nc1 [α,α'-dipyridyl]",activity at 1000 µM,[1]; [11],94.4%
mercury ions,inhibition of the known enzyme (in words),[3],Substantially completely inhibited
